According to ChEMBL document CHEMBL4507257, “Data for DCP probe ABT-100” (2021):

Assays:
[1] = target: Serine/threonine-protein kinase BRSK2 (Homo sapiens, UniProt Q8IWQ3); test: Inhibition of BRSK2 at compound concentration of 10.0 uM using the ScanMax (DiscoverX)
[2] = target: Cyclin-dependent kinase 7 (Homo sapiens, UniProt P50613); test: Inhibition of CDK7 at compound concentration of 10.0 uM using the ScanMax (DiscoverX)
[3] = target: Homeodomain-interacting protein kinase 2 (Homo sapiens, UniProt Q9H2X6); test: Inhibition of HIPK2 at compound concentration of 10.0 uM using the ScanMax (DiscoverX)
[4] = target: Histamine H1 receptor (Homo sapiens, UniProt P35367); test: GPCRScan assay: inhibition of H1; parameters: radioligand conc. used [nm] 0.6 – 2.0, parental cells stable HEK
[5] = target: D(1A) dopamine receptor (Homo sapiens) (UniProt P21728); test: D1 (h) Ligand binding assay; conditions: Compound concentration 10.0 uM
[6] = target: D(2) dopamine receptor (Homo sapiens) (UniProt P14416); test: D2 (h) Ligand binding assay; conditions: Compound concentration 10.0 uM
[7] = target: T1, Muscarinic acetylcholine receptor M5 (Homo sapiens) (UniProt P08912); test: M5 (h) Ligand binding assay; conditions: Compound concentration 10.0 uM
T1 sequence (whole entry): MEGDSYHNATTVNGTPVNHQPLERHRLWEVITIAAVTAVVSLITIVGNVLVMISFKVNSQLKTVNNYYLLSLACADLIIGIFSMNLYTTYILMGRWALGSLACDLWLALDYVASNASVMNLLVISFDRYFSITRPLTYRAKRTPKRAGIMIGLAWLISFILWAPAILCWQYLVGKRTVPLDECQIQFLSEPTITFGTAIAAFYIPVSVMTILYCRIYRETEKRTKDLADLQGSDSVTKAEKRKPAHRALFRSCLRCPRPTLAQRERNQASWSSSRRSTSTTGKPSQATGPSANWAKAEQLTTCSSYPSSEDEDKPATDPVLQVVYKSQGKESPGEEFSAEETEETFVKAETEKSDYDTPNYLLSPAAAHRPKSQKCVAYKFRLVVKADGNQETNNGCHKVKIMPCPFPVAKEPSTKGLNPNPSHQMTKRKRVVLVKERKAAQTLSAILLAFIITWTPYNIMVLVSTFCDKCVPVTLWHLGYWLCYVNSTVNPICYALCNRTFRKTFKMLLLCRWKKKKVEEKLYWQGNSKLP

[8] = target: Neurotensin receptor type 1 (Homo sapiens) (UniProt P30989); test: NT1 (h) Ligand binding assay; conditions: Compound concentration 10.0 uM
[9] = target: Pituitary adenylate cyclase-activating polypeptide type I receptor (Homo sapiens) (UniProt P41586); test: PACAP[…] (h) Ligand binding assay; conditions: Compound concentration 10.0 uM
[10] = target: P2X receptor (Rattus norvegicus) (UniProt P51579+P49653+P51578+Q64663+P47824+P51577+P49654); test: P2X Ligand binding assay; format: protein assay; conditions: Compound concentration 10.0 uM
[11] = target: 5-hydroxytryptamine receptor 2A (Homo sapiens) (UniProt P28223); test: 5-HT2A (h) Ligand binding assay; conditions: Compound concentration 10.0 uM
[12] = target: L-type calcium channel (verapamil site) (Homo sapiens, UniProt O60840+Q01668+Q13698+Q13936); test: Ca2+ channel (L verapamil site) Ligand binding assay; format: protein assay
[13] = target: sodium channel (site 2) (Homo sapiens, UniProt P35498+P35499+Q01118+Q14524+Q15858+Q99250+Q9NY46+Q9UI33+Q9UQD0+Q9Y5Y9); test: Na+ channel (site 2) Ligand binding assay; format: protein assay
[14] = Cl- ionophore Ligand binding assay
[15] = target: Calcium/calmodulin-dependent protein kinase type 1B (Homo sapiens, UniProt Q6P2M8); conditions: Compound concentration 1000.0 nM
[16] = target: Macrophage colony-stimulating factor 1 receptor (Homo sapiens) (UniProt P07333); conditions: Compound concentration 1000.0 nM
[17] = target: Death-associated protein kinase 3 (Homo sapiens) (UniProt O43293); conditions: Compound concentration 1000.0 nM
[18] = target: Receptor tyrosine-protein kinase erbB-4 (Homo sapiens) (UniProt Q15303); conditions: Compound concentration 1000.0 nM
[19] = target: Hormonally up-regulated neu tumor-associated kinase (Homo sapiens) (UniProt P57058); conditions: Compound concentration 1000.0 nM
[20] = target: Serine/threonine-protein kinase LATS2 (Homo sapiens) (UniProt Q9NRM7); conditions: Compound concentration 1000.0 nM
[21] = target: Misshapen-like kinase 1 (Homo sapiens) (UniProt Q8N4C8); conditions: Compound concentration 1000.0 nM
[22] = target: Serine/threonine-protein kinase PAK 2 (Homo sapiens) (UniProt Q13177); conditions: Compound concentration 1000.0 nM
[23] = target: Cyclin-dependent kinase 15 (Homo sapiens) (UniProt Q96Q40); conditions: Compound concentration 1000.0 nM
[24] = target: Serine/threonine-protein kinase PknB (Mycobacterium tuberculosis) (UniProt P9WI81); conditions: Compound concentration 1000.0 nM
[25] = target: Serine/threonine-protein kinase D3 (Homo sapiens) (UniProt O94806); conditions: Compound concentration 1000.0 nM
[26] = target: Serine/threonine-protein kinase SIK2 (Homo sapiens) (UniProt Q9H0K1); conditions: Compound concentration 1000.0 nM
[27] = target: Beta-1 adrenergic receptor (Homo sapiens) (UniProt P08588); conditions: Compound concentration 10.0 uM
[28] = target: Alpha-1D adrenergic receptor (Homo sapiens) (UniProt P25100); conditions: Compound concentration 10.0 uM
[29] = target: Melatonin receptor type 1A (Homo sapiens) (UniProt P48039); test: ML1 Ligand binding assay; conditions: Compound concentration 10.0 uM

Receptor tyrosine-protein kinase erbB-4 (Homo sapiens), sequence (Q15303 whole entry): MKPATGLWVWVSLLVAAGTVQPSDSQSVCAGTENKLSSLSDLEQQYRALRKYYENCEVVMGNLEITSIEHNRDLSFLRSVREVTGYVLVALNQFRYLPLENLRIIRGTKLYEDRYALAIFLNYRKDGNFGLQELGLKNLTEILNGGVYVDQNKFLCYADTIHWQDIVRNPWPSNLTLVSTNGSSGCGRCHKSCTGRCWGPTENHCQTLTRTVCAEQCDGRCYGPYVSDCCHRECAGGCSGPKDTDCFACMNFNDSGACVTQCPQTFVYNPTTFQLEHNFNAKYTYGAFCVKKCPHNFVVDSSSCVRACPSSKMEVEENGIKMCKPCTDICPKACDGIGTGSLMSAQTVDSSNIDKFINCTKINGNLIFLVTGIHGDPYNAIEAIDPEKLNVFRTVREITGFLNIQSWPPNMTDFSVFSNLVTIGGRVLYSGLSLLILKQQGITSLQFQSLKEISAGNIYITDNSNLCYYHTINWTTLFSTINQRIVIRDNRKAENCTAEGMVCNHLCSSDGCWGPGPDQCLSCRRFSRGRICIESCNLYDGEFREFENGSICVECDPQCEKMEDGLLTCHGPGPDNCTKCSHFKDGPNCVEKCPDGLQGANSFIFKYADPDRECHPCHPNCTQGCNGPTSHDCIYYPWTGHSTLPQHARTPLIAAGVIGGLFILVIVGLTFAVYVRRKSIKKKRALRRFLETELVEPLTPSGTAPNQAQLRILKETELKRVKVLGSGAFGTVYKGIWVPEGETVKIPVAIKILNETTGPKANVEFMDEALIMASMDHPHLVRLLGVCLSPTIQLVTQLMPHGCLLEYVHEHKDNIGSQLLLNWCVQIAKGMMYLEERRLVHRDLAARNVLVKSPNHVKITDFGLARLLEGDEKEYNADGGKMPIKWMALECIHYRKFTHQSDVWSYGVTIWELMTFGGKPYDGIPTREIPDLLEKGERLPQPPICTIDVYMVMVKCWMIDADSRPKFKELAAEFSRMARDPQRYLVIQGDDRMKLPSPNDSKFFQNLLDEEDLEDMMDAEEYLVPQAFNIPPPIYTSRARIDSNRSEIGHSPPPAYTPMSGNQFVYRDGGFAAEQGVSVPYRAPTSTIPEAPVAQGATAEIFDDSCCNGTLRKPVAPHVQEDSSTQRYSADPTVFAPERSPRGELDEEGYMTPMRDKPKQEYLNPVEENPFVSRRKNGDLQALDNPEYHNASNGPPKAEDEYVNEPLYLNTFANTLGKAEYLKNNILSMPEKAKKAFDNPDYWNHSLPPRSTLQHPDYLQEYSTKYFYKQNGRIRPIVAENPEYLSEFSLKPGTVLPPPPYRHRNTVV
Death-associated protein kinase 3 (Homo sapiens), sequence (O43293 whole entry, looked up): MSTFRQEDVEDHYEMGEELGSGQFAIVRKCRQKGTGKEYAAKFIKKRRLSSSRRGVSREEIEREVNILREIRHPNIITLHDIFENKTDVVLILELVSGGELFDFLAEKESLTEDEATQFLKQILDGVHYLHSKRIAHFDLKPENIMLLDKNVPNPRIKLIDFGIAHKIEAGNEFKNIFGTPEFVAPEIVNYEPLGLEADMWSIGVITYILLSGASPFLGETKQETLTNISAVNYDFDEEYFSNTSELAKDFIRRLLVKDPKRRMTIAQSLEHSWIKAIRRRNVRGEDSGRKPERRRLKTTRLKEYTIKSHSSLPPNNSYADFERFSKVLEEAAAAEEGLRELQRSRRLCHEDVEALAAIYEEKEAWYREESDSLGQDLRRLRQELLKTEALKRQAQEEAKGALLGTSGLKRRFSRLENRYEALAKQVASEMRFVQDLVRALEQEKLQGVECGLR
Hormonally up-regulated neu tumor-associated kinase (Homo sapiens), sequence (P57058 whole entry): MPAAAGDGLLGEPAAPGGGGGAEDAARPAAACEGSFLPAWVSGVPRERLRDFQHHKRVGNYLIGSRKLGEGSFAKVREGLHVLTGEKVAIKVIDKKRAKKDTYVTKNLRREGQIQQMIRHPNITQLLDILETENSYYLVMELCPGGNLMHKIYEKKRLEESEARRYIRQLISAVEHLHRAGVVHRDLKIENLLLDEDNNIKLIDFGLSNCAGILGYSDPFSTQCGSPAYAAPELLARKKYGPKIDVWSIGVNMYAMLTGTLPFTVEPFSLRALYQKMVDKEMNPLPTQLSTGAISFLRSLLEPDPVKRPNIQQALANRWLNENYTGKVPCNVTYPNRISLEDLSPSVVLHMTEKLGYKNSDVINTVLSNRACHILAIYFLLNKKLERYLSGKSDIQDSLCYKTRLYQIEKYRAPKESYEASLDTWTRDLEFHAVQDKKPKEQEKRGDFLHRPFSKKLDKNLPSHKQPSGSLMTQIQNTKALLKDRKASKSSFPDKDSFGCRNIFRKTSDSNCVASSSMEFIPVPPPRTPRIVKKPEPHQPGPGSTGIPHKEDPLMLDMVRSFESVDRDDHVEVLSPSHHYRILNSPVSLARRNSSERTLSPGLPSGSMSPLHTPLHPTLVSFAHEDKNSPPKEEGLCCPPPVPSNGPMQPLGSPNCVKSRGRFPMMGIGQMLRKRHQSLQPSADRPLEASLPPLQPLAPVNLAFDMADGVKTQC
Serine/threonine-protein kinase PknB (Mycobacterium tuberculosis), sequence (P9WI81 whole entry): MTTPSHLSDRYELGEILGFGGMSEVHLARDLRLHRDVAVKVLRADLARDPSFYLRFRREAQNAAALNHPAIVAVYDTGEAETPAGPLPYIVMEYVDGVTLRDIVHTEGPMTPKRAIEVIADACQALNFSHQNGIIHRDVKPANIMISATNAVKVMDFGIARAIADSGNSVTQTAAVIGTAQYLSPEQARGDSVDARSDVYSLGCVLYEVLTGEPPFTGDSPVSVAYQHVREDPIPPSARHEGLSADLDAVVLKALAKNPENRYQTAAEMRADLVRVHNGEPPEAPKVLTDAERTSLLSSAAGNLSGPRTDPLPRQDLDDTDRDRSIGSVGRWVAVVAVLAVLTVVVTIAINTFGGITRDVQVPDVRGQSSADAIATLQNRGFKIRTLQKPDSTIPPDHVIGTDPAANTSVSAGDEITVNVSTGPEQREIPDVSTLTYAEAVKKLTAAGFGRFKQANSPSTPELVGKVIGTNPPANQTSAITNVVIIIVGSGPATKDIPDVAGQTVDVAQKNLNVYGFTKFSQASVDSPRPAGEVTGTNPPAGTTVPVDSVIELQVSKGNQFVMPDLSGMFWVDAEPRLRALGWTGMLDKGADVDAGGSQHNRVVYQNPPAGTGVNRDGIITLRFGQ
Cyclin-dependent kinase 15 (Homo sapiens), sequence (Q96Q40 whole entry): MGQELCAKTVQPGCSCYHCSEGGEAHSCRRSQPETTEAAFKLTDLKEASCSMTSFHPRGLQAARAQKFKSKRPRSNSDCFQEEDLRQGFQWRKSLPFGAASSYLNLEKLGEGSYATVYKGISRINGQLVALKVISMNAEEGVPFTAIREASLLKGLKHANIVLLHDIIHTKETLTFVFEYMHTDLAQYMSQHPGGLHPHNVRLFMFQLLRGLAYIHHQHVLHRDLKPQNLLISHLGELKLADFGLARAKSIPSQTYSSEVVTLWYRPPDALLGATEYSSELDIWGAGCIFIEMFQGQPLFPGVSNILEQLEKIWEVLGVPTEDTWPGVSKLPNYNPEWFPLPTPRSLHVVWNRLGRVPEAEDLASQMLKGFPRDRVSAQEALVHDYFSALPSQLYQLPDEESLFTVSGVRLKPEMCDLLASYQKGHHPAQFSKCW
Misshapen-like kinase 1 (Homo sapiens), sequence (Q8N4C8 whole entry, looked up): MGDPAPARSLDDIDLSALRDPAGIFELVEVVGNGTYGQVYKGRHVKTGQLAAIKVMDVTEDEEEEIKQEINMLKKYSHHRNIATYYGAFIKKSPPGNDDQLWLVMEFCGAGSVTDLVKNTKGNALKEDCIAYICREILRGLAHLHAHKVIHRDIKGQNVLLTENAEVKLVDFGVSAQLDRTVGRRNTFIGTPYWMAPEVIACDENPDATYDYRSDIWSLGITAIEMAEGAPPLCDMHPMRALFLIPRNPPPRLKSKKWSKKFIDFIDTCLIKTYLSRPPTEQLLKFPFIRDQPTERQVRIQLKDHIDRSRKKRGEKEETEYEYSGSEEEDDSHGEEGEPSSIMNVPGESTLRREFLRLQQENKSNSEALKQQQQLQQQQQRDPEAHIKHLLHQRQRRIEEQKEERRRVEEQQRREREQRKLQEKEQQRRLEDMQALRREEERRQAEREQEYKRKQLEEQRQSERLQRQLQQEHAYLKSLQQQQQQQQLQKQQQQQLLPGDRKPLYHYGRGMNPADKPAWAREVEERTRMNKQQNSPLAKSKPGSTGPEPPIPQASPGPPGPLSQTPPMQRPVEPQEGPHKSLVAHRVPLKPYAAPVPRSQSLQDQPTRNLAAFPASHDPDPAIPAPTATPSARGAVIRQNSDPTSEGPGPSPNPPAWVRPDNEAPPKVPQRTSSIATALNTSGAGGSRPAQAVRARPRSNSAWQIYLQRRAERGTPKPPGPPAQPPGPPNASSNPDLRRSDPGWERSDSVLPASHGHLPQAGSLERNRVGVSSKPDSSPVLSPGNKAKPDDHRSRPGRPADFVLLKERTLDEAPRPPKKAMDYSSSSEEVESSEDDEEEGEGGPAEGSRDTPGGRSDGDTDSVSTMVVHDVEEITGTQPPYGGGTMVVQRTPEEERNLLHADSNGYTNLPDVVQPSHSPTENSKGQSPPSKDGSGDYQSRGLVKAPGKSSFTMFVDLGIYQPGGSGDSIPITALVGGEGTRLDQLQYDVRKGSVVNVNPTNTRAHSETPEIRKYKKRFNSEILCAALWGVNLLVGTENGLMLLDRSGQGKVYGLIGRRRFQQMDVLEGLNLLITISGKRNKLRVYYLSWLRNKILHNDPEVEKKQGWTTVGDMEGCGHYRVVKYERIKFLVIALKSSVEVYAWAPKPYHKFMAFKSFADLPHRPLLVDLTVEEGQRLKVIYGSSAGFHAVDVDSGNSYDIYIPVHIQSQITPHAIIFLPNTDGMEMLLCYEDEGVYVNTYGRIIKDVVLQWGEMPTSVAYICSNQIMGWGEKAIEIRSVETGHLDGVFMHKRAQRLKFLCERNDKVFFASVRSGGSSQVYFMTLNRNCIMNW

Cn1cncc1[C@](O)(COc1ccc(C#N)cc1-c1ccc(OC(F)(F)F)cc1)c1ccc(C#N)cc1 [ABT-100]
Kd [1]: > 10 µM (not active) | Kd [2]: > 10 µM (not active) | Kd [3]: > 10 µM (not active) | Ki [4]: 10 µM | inhibition [5]: 31% | inhibition [6]: 12% | inhibition [7]: 18% | inhibition [8]: < 10% | inhibition [9]: < 10% | inhibition [10]: < 10% | inhibition [11]: 15% | inhibition at 1 µM ([12]; compound concentration 1 uM): 10% (not active) | inhibition at 3 µM ([12]; compound concentration 3 uM): 37% (not active) | inhibition at 10 µM ([12]; compound concentration 10 uM): 60% | inhibition at 0.3 µM ([13]; compound concentration 0.3 uM): 15% (not active) | inhibition at 1 µM ([13]; compound concentration 1 uM): 10% (not active) | inhibition at 3 µM ([13]; compound concentration 3 uM): 22% (not active) | inhibition at 10 µM ([13]; compound concentration 10 uM): 58% | inhibition ([14]; Compound concentration 3.0 uM): 30% | inhibition ([14]; Compound concentration 10.0 uM): 67% | residual activity [15]: 60% | residual activity [16]: 93% | residual activity [17]: 88% | residual activity [18]: 81% | residual activity [19]: 68% | residual activity [20]: 100% | residual activity [21]: 94% | residual activity [22]: 93% | residual activity [23]: 59% | residual activity [24]: 97% | residual activity [25]: 100% | residual activity [26]: 95% | inhibition [27]: 4.25% | inhibition [28]: -8.65% | inhibition [29]: 50%

Cn1cncc1[C@@](O)(COc1ccc(C#N)cc1-c1ccc(OC(F)(F)F)cc1)c1ccc(C#N)cc1 [A-108]
residual activity [15]: 100% | residual activity [16]: 100% | residual activity [17]: 100% | residual activity [18]: 100% | residual activity [19]: 100% | residual activity [20]: 100% | residual activity [21]: 100% | residual activity [22]: 96% | residual activity [23]: 100% | residual activity [24]: 78% | residual activity [25]: 98% | residual activity [26]: 100%
